Source: US20110118239A1, “PREPARATION AND ENANTIOMERIC SEPARATION OF 7-(3-PYRIDINYL)-1,7-DIAZASPIRO[4.4]NONANE AND NOVEL SALT FORMS OF THE RACEMATE AND ENANTIOMERS” (Targacept, Inc., priority 2008, published 2011)
Like-named read-outs stand apart in the source and are kept apart here.

Assays:
[1] = molecular target: Rat α4β2 (Rattus norvegicus, UniProt P09483+P12390); test: Binding to rat α4β2 NNR (Ki)
Procedure: (§1) Binding and function of the compounds to relevant receptor sites was determined in accordance with the techniques described in PCT WO 2008/057938. Inhibition constants (Ki values), reported in nM, were calculated from the IC50 values using the method of Cheng et al., Biochem. Pharmacol. 22: 3099 (1973). […] Thus, the compounds of the present invention are selective modulators of the α4β2 NNR subtype.

[2] = molecular target: Human α4β2 (Homo sapiens, UniProt P17787+P43681); test: Binding to human α4β2 NNR (Ki)
Procedure: as §1

[3] = molecular target: Rat α7 (Rattus norvegicus, UniProt Q05941); test: Binding to rat α7 NNR (Ki)
Procedure: as §1

[4] = molecular target: T1, human α4β2 NNRs (Homo sapiens, UniProt P17787+P43681); test: Function at human α4β2 NNRs, SH-EP1/human a4b2 cells, FLIPR calcium; assay type: cell-based
T1 construct: expressed in transfected cells; host or cells: SH-EP1
Procedure: as §1
After the loading period, plates were equilibrated to room temperature and the cells exposed to the test article ([…]) or nicotine or buffer alone on a FLIPR (Molecular Devices). Fluorescence (at 485 nm) was monitored throughout the experiment. The test article change in fluorescence was compared to both a positive control (10 μM nicotine) and a negative control (buffer alone) to determine the percent response relative to that of nicotine.

[5] = molecular target: Human Ganglion (Homo sapiens, UniProt P30926+P32297); test: Function at human ganglion subtype, single point 100 μM; assay type: cell-based
Procedure: as §1

[6] = molecular target: Human Muscle (Homo sapiens, UniProt P02708+P07510+Q07001); test: Function at human muscle subtype, single point 100 μM; assay type: cell-based
Procedure: as §1

[7] = Single rising dose (SRD) study of Compound C, plasma pharmacokinetics of racemate and enantiomers; assay type: in vivo; conditions: for t1/2 (mean) / Cmax / Tmax / AUC(0-inf) / half-life: plasma; for t1/2 (mean): Table 3; for Cmax / Tmax / AUC(0-inf) / half-life: human; for AUC(0-inf): read-out: AUCinf (mean)
Procedure: A single, rising dose (SRD) study was performed with Compound C (the racemate). Plasma samples were analyzed for the content of the two enantiomers, Compound A (substantially pure R), Compound B (substantially pure S). Three dose groups (Compound C) were analyzed, 50, 100, and 400 mg, and four subjects were randomly selected from the 6 subjects tested to receive active treatment in each cohort examined in the SRD study.

[8] = test system: mice; test: Seizure induction after acute dose, mice; assay type: in vivo; conditions: female mice; acute oral dose of 400 mg/kg
Text: For example, preclinically, Compound C induced seizures following acute doses: […]

[9] = test system: rats; test: Seizure/convulsion induction after acute dose, rats; assay type: in vivo
Procedure: For example, preclinically, Compound C induced seizures following acute doses:
Likewise, Compound B induced convulsion in 1/6 male rats following an acute oral dose of 300 mg/kg.
In fact, the effect of Compound A was not statistically different from the vehicle control.

[10] = test system: nicotinic; test: Standard receptor screen at 10 μM: nicotinic; assay type: binding; conditions: hydrochloride salt
Procedure: (§2) Both Compound A, (R)-7-(3-pyridinyl)-1,7-diazaspiro[4.4]nonane, and Compound B, (S)-7-(3-pyridinyl)-1,7-diazaspiro[4.4]nonane, each as their hydrochloride salts, were screened, at 10 μM concentration, against a standard set of receptors. […] Thus, the two stereoisomers differentiate from one another in terms of their non-nicotinic receptor binding characteristics. This differentiation is believed to translate into a differentiation between the ability of each of (R)-7-(3-pyridinyl)-1,7-diazaspiro[4.4]nonane and (S)-7-(3-pyridinyl)-1,7-diazaspiro[4.4]nonane to treat various disease states, including, for example, the ability of Compound A to enhance desensitization of α4β2 NNRs.

[11] = molecular target: histamine H1 (Homo sapiens, UniProt P35367); test: Standard receptor screen at 10 μM: histamine H1; assay type: binding; conditions: hydrochloride salt, read-out: inhibition at histamine H1 receptors
Procedure: as §2

[12] = test system: rat; test: Anxiety model, elevated plus maze (EPM); assay type: in vivo; conditions: 0.02, 0.06, and 0.21 mg/kg i.p. 30 minutes before the test, FIG. 1
Text: The method, which detects anxiolytic activity, follows that described by Handley S. L. and Mithani S., Effects of alpha-adrenoceptor agonists and antagonists in a maze-exploration model of fear-motivated behaviour, Naunyn-Schmied. Arch. Pharmacol., 327, 1-5, 1984.
Rodents avoid open spaces (the open arms of an elevated plus-maze). Anxiolytics increase exploratory activity in the open arms. The maze consisted of 4 arms of equal length and width arranged in the form of a plus sign (+). Two opposite arms were enclosed by walls (closed arms). The two other arms had no walls (open arms). The maze was raised above the floor. A rat was placed in the centre of the plus-maze and left to explore for 5 minutes. The number of entries into the open and closed arms and the time spent in the open arms were recorded.
Ten (10) rats were studied per group. The test was performed blind. Compound A was evaluated at 0.02, 0.06, and 0.21 mg/kg, administered i.p. 30 minutes before the test, and compared with a vehicle control group. Clobazam, administered under the same experimental conditions, was used as reference substance. The experiment therefore included […].
Data were analyzed by comparing the treated groups with the control group using unpaired tests.

[13] = test system: A/J mice; test: Depression model, tail suspension (TS); assay type: in vivo; conditions: 0.1 mg/kg (p-hydroxybenzoate), 10 min test
Procedure: On the day of the test, A/J mice were brought to acclimate to the testing room for one hour. Eight animals were tested in each run. Following pretreatment with vehicle, desipramine (20 mg/kg) or Compound A, p-hydroxybenzoate (0.1, 0.3, and 1 mg/kg), a piece of transparent (Scotch) tape was attached to the tail of each mouse from about mid-tail with approximately 2 cm of tape past the end of the tail. The mice were then placed in the tail suspension chambers (white polyvinylchloride cubicles measuring 33×33×31.75 cm; Med Associates Inc., St Albans, Vt.). The mice were suspended from the hook of the TS force transducer via the tail tape. The force transducer transmitted the movements of the mouse to a recording device connected to a computer. Immobility time, struggle time, and intensity were automatically recorded for each min during the 10 min test period. Upon completion of the TS test, the mice were returned to their home cage and then to the animal colony. The TS chambers were cleaned between sessions. Data were analyzed by repeated measures and one-way analysis of variance (ANOVA) followed by Fisher PLSD post-hoc comparisons. An effect was considered significant if p<0.05.

[14] = test system: animal models of depression and anxiety; test: Validated animal models of depression and anxiety (summary statement); conditions: in vivo
[15] = SH-EP1/human a4b2 cells, FLIPR calcium, relative to 10 μM nicotine, read-out: Human α4β2 Emax (% of nic resp)
[16] = po, 50 mg Compound C (n = 4), read-out: Mean (SD) Terminal Elimination Half-life (converted)
[17] = po, 100 mg Compound C (n = 4), read-out: Mean (SD) Terminal Elimination Half-life (converted)
[18] = po, 400 mg Compound C (n = 4), read-out: Mean (SD) Terminal Elimination Half-life (converted)

T1 sequence (P43681 29-627 limits assumed): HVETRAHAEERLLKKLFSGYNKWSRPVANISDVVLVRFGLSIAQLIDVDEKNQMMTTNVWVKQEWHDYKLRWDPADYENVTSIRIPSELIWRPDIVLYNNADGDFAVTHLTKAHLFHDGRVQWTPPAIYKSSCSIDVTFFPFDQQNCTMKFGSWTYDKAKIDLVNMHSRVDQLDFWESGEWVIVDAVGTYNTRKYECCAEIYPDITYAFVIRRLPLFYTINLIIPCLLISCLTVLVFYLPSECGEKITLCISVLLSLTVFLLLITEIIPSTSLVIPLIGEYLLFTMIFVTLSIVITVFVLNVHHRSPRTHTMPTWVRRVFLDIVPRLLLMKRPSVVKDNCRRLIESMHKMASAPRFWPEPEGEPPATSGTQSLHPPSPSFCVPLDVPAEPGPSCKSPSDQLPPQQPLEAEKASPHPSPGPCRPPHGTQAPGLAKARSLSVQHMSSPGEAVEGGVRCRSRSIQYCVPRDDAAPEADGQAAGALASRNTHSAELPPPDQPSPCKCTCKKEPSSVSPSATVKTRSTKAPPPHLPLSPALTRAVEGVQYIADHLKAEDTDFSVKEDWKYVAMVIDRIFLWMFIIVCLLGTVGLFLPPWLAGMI
T1 sequence (P17787 26-502): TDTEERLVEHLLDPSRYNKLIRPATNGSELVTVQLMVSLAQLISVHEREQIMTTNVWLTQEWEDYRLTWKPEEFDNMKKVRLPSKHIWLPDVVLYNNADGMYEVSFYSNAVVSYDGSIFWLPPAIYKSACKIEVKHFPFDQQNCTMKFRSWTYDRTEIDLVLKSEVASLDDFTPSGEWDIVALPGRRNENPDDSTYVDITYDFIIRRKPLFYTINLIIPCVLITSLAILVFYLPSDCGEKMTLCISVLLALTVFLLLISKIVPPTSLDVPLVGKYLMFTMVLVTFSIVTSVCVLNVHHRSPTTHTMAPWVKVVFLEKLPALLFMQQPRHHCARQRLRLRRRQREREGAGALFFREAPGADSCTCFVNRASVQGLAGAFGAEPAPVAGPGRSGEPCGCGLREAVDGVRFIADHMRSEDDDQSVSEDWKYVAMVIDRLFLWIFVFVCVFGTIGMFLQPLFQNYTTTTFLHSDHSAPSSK
Sequence of Rat α7 (Q05941 23-502): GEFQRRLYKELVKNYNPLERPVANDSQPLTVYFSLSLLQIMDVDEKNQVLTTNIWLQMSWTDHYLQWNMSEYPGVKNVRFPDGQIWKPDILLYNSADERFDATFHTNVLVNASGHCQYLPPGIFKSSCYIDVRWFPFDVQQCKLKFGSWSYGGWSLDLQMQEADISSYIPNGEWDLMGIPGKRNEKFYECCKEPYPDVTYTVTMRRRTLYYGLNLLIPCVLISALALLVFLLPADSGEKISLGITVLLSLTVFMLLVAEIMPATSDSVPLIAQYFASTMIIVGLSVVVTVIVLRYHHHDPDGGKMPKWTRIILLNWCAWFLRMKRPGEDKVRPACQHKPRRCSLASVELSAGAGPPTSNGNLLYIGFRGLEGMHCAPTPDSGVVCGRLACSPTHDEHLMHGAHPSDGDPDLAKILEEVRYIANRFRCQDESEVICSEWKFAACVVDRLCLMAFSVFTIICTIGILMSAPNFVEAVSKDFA
Sequence of Human Ganglion (P32297 32-505): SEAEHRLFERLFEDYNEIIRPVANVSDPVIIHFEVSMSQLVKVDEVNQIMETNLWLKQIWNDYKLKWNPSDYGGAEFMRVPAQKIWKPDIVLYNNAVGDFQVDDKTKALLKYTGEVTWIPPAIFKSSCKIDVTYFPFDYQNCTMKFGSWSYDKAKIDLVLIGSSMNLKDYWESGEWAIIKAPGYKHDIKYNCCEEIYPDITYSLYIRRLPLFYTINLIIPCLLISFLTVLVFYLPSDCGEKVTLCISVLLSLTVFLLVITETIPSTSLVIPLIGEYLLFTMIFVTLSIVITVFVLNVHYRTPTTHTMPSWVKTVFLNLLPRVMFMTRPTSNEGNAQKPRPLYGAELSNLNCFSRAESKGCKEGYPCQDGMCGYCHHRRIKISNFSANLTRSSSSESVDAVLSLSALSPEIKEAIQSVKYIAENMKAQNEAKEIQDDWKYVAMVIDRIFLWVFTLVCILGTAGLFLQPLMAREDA
Sequence of Human Ganglion (P30926 22-498): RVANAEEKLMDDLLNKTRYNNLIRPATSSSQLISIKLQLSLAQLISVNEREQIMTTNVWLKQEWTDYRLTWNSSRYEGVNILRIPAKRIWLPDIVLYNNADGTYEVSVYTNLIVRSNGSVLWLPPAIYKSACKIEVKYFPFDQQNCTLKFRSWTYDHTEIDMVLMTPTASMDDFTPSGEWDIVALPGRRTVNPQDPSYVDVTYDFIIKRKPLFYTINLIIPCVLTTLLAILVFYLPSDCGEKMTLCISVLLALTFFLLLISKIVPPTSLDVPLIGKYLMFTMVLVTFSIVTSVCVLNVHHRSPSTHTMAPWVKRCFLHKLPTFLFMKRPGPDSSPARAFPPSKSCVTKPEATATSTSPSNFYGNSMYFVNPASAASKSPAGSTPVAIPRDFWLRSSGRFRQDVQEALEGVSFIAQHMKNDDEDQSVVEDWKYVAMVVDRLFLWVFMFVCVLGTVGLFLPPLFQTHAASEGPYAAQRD
Sequence of Rat α4β2 (P09483 31-630): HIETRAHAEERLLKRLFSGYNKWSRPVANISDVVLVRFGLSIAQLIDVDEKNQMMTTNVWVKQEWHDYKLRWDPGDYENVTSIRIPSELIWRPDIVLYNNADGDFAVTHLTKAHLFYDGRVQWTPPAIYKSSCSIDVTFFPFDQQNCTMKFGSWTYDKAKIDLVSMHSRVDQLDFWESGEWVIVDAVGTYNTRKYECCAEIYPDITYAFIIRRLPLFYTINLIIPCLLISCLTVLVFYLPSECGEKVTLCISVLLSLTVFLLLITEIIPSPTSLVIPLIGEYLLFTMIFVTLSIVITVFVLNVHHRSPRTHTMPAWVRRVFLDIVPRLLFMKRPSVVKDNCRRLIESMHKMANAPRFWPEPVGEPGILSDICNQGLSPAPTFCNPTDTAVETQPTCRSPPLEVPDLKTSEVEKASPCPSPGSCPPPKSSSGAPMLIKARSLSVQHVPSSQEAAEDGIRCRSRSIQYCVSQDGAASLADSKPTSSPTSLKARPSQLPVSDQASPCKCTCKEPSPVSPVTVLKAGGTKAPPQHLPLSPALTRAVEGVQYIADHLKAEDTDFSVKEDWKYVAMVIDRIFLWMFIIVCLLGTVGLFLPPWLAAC
Sequence of Rat α4β2 (P12390 25-500): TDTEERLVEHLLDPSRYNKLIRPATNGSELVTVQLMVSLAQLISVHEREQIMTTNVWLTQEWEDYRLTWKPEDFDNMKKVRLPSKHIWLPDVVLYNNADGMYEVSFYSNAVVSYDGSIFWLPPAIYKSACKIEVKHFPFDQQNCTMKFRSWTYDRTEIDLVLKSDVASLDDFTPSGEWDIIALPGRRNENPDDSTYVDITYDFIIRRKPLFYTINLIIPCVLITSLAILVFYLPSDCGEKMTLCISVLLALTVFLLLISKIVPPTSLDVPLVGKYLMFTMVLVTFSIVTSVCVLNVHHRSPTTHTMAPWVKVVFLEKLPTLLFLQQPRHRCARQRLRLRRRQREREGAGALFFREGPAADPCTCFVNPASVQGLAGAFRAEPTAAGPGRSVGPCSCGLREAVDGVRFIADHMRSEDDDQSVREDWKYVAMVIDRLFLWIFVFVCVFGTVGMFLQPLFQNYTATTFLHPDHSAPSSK
Sequence of Human α4β2 (P43681 29-627 limits assumed): as the sequence (P43681 29-627 limits assumed) above
Sequence of Human α4β2 (P17787 26-502): as the sequence (P17787 26-502) above
Sequence of histamine H1 (P35367 whole entry): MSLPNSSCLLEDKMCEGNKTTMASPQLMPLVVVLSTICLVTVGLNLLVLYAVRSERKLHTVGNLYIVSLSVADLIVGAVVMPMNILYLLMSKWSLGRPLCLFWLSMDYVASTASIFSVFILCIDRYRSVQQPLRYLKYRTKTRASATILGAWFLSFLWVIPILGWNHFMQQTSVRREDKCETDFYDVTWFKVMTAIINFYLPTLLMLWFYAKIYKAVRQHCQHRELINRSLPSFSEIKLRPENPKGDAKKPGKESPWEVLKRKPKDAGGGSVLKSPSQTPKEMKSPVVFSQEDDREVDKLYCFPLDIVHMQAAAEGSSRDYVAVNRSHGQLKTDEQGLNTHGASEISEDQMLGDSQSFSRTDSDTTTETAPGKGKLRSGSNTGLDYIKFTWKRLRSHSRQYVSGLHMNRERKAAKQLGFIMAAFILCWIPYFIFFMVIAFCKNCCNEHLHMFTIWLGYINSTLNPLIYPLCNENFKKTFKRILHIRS

Row | SMILES | Emax [4, 15] [%] | Human Ganglion SP (100 μM) [5] | Human Muscle SP (100 μM) [6] | t1/2 (mean) ([7]; 50 mg Compound C (n = 4)) [h] | t1/2 (mean) ([7]; 100 mg Compound C (n = 4)) [h] | t1/2 (mean) ([7]; 400 mg Compound C (n = 4)) [h] | Cmax ([7]; po, 50 mg Compound C (n = 4)) [ng/mL] | Tmax ([7]; po, 50 mg Compound C (n = 4)) [h] | AUC(0-inf) ([7]; po, 50 mg Compound C (n = 4)) [ng·h/mL] | half-life [7, 16] [h] | Cmax ([7]; po, 100 mg Compound C (n = 4)) [ng/mL] | Tmax ([7]; po, 100 mg Compound C (n = 4)) [h] | AUC(0-inf) ([7]; po, 100 mg Compound C (n = 4)) [ng·h/mL] | half-life [7, 17] [h] | Cmax ([7]; po, 400 mg Compound C (n = 4)) [ng/mL] | Tmax ([7]; po, 400 mg Compound C (n = 4)) [h] | AUC(0-inf) ([7]; po, 400 mg Compound C (n = 4)) [ng·h/mL] | half-life [7, 18] [h] | also measured
1 | c1cncc(N2CCC3(CCCN3)C2)c1 (racemic) [Compound C, 7-(3-pyridinyl)-1,7-diazaspiro[4.4]nonane] | 43 | 15 | 22 | 24.8 | 21.1 | 18.5 | 21.8 | 4.38 | 473 | 24.8 | 44.7 | 31.1 | 741 | 21.1 | 295 | 2 | 3680 | 18.5 | Ki [1]: 68 nM; Ki [2]: 34 nM; Ki [3]: > 10000 nM; EC50 ([4]; SH-EP1/human a4b2 cells, FLIPR calcium, read-out: Human α4β2 EC50): 9100 nM; induced seizures (animals affected) [8]: 1/5 female mice; induced seizures (animals affected) ([9]; female rats, acute IV dose of 100 mg/kg): 4/5 female rats; induced seizures (animals affected) ([9]; female rats, acute oral dose of 200 mg/kg): 1/5 female rats; induced seizures (animals affected) ([9]; female rats, acute oral dose of 800 mg/kg): 1/5 female rats; induced seizures (animals affected) ([9]; male rats, acute IV dose of 100 mg/kg): 1/5 male rats; induced seizures (animals affected) ([9]; male rats, acute oral dose of 800 mg/kg): 1/5 male rats
2 | c1cncc(N2CC[C@]3(CCCN3)C2)c1 [Compound A, (R)-7-(3-pyridinyl)-1,7-diazaspiro[4.4]nonane] | 9 | 3 | 6 | 27.5 | 23.7 | 22.4 | 10.3 | 4.38 | 256 | 27.5 | 22.7 | 3.25 | 451 | 23.7 | 163 | 2 | 2420 | 22.4 | Ki ([1]; read-out: Rat α4β2 Ki): 74 nM; Ki ([2]; read-out: Human α4β2 Ki): 40 nM; Ki ([3]; read-out: Rat α7 Ki): 5400 nM; Emax ([4]; SH-EP1, read-out: Emax at human α4β2 NNRs): 9%; EC50 ([4]; read-out: EC50 at human α4β2 NNRs): 84000 nM; inhibition at nicotinic receptors [10]: 99 % inhibition; inhibition at 10 µM [11]: 66%; Activity in the EPM [12]: anxiolytic-like activity; struggle intensity compared to saline [13]: increased struggle intensity; total time immobile compared to saline [13]: decreased total time immobile; Efficacy in multiple validated animal models of depression and anxiety [14]: demonstrated efficacy; half-life ([7]; oral, after Compound C 50, 100, 400 mg, read-out: terminal elimination half-life longer than that of Compound B (converted)): ~6 h; share of total exposure (Cmax and AUCinf) compared to the racemate, Compound C ([7]; oral administration of Compound C): approximately half; effect on seizure induction ([9]; under the same conditions (as Compound B: acute oral dose of 300 mg/kg, male rats)): no effect on seizure induction
